According to patent publication US20230086703A1, “N-(4-(5-chloropyridin-3-yl)phenyl)-2-(2-(cyclopropanesulfonamido)pyrimidin-4-yl) butanamide derivatives and related compounds as human CTPS1 inhibitors for the treatment of proliferative diseases” (Step Pharma S.A.S., priority 2019, published 2023):
pIC50: −log10 of the molar value. Values joined by “and” are separate entries in the source; they are usually repeats but may differ in a detail not shown here. Identical values can stand only once.

Biological target: T1, human CTPS1 (Homo sapiens, UniProt P17812)
T1 construct: FLAG (with GG linker); His8 (with GG linker); purchased Proteros biostructures GmbH
T1 sequence (P17812 1-591): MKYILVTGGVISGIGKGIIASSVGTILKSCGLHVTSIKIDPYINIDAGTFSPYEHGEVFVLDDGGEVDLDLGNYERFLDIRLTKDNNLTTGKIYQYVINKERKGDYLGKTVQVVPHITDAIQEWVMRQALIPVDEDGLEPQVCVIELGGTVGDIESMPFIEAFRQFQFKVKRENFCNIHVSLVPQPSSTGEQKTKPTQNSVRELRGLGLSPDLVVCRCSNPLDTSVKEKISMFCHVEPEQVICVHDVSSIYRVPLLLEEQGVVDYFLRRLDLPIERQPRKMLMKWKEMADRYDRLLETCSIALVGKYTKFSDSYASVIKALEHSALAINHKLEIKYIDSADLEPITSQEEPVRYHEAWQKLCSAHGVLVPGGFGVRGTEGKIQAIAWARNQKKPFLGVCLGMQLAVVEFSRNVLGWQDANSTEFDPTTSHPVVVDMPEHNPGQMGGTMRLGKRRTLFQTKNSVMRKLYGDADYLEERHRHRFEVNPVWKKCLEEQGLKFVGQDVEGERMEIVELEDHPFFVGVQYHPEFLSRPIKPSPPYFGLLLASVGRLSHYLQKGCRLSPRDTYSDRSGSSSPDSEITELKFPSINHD
Experiment: Human CTPS1 enzyme inhibition, ADP-Glo Max assay
Type: biochemical
Details: ADP-Glo Max assay; Table 10; read-out: Human CTPS1 Enzyme Inhibition, IC50 grouped by potency range (CTPS1)
Summary of the method: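 Enzyme preincubated with compound for 10 min at 25 °C in 50 mM Tris pH 8.0, 10 mM MgCl2, 0.01% Tween-20, 2 mM L-cysteine. ATP-to-ADP conversion detected by ADP-Glo Max luminescence after 60 min depletion and 60 min development steps. Percentage inhibition calculated per concentration.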

Row | SMILES | pIC50
1 | CC(C)(C(=O)Nc1ccc(-c2cncc(OC(F)F)c2)cc1F)c1csc(NS(=O)(=O)C2CC2)n1 [T139, 2-(2-(cyclopropanesulfonamido)thiazol-4-yl)-N-(4-(5-(difluoromethoxy)pyridin-3-yl)-2-fluorophenyl)-2-methylpropanamide] | > 7.00
2 | CC(C)(C(=O)Nc1ccc(-c2cnccn2)cn1)c1csc(NS(=O)(=O)C2CC2)n1 [T140, 2-(2-(cyclopropanesulfonamido)thiazol-4-yl)-2-methyl-N-(5-(pyrazin-2-yl)pyridin-2-yl)propanamide] | 6.00 to 7.00
3 | CC(C)(C(=O)Nc1ccc(-c2cncc(OC3CCC3)n2)cn1)c1csc(NS(=O)(=O)C2CC2)n1 [T141, N-(5-(6-cyclobutoxypyrazin-2-yl)pyridin-2-yl)-2-(2-(cyclopropanesulfonamido)thiazol-4-yl)-2-methylpropanamide] | 6.00 to 7.00
4 | CC(C)(C(=O)Nc1ccc(-c2cncc(OC3CC3)n2)cn1)c1csc(NS(=O)(=O)C2CC2)n1 [T142, 2-(2-(cyclopropanesulfonamido)thiazol-4-yl)-N-(5-(6-cyclopropoxypyrazin-2-yl)pyridin-2-yl)-2-methylpropanamide] | > 7.00
5 | CC(C)Oc1cncc(-c2ccc(NC(=O)C(C)(C)c3csc(NS(=O)(=O)C4CC4)n3)nc2)n1 [T143, 2-(2-(cyclopropanesulfonamido)thiazol-4-yl)-N-(5-(6-isopropoxypyrazin-2-yl)pyridin-2-yl)-2-methylpropanamide] | > 7.00
6 | CCC(CC)(C(=O)Nc1ccc(-c2cccnc2)cn1)c1csc(NS(=O)(=O)C2CC2)n1 [T144, N-([3,3′-bipyridin]-6-yl)-2-(2-(cyclopropanesulfonamido)thiazol-4-yl)-2-ethylbutanamide] | 6.00 to 7.00
7 | CCOc1cncc(-c2ccc(NC(=O)C(CC)(CC)c3csc(NS(=O)(=O)C4CC4)n3)nc2)c1 [T145, 2-(2-(cyclopropanesulfonamido)thiazol-4-yl)-N-(5′-ethoxy-[3,3′-bipyridin]-6-yl)-2-ethylbutanamide] | > 7.00
8 | CCCOc1cncc(-c2ccc(NC(=O)C(C)(C)c3csc(NS(=O)(=O)C4CC4)n3)nc2)c1 [T146, 2-(2-(cyclopropanesulfonamido)thiazol-4-yl)-2-methyl-N-(5′-propoxy-[3,3′-bipyridin]-6-yl)propanamide] | 6.00 to 7.00
9 | CCC(CC)(C(=O)Nc1ccc(-c2cncc(C(F)(F)F)n2)cn1)c1csc(NS(=O)(=O)C2CC2)n1 [T147, 2-(2-(cyclopropanesulfonamido)thiazol-4-yl)-2-ethyl-N-(5-(6-(trifluoromethyl)pyrazin-2-yl)pyridin-2-yl)butanamide] | > 7.00
10 | CC(C)(C(=O)Nc1ccc(-c2cccnc2)cn1)c1csc(NS(=O)(=O)C2CC2)n1 [T148, N-([3,3′-bipyridin]-6-yl)-2-(2-(cyclopropanesulfonamido)thiazol-4-yl)-2-methylpropanamide] | 6.00 to 7.00
11 | COc1cc(-c2cccnc2)ccc1NC(=O)C(C)(C)c1csc(NS(=O)(=O)C2CC2)n1 [T149, 2-(2-(cyclopropanesulfonamido)thiazol-4-yl)-N-(2-methoxy-4-(pyridin-3-yl)phenyl)-2-methylpropanamide] | > 7.00
12 | COc1cc(NC(=O)C(C)(C)c2csc(NS(=O)(=O)C3CC3)n2)ccc1-c1cccnc1 [T150, 2-(2-(cyclopropanesulfonamido)thiazol-4-yl)-N-(3-methoxy-4-(pyridin-3-yl)phenyl)-2-methylpropanamide] | 6.00 to 7.00
13 | CC(C)(C(=O)Nc1ccc(-c2cccnc2)c(F)c1)c1csc(NS(=O)(=O)C2CC2)n1 [T151, 2-(2-(cyclopropanesulfonamido)thiazol-4-yl)-N-(3-fluoro-4-(pyridin-3-yl)phenyl)-2-methylpropanamide] | 6.00 to 7.00
14 | CC(C)(C(=O)Nc1ccc(-c2cccnc2)c(C#N)c1)c1csc(NS(=O)(=O)C2CC2)n1 [T152, N-(3-cyano-4-(pyridin-3-yl)phenyl)-2-(2-(cyclopropanesulfonamido)thiazol-4-yl)-2-methylpropanamide] | 6.00 to 7.00
15 | CC(C)(C(=O)Nc1ccc(-c2cncc(C#N)n2)cc1)c1csc(NS(=O)(=O)C2CC2)n1 [T154, N-(4-(6-cyanopyrazin-2-yl)phenyl)-2-(2-(cyclopropanesulfonamido)thiazol-4-yl)-2-methylpropanamide] | 6.00 to 7.00
16 | CC(C)(C(=O)Nc1ccc(-c2cncc(Cl)n2)cc1)c1csc(NS(=O)(=O)C2CC2)n1 [T155, N-(4-(6-chloropyrazin-2-yl)phenyl)-2-(2-(cyclopropanesulfonamido)thiazol-4-yl)-2-methylpropanamide] | > 7.00

Row | SMILES | pIC50
17 | CCC(CC)(C(=O)Nc1ccc(-c2cncc(F)c2)cc1)c1csc(NS(=O)(=O)C2CC2)n1 [T156, 2-(2-(cyclopropanesulfonamido)thiazol-4-yl)-2-ethyl-N-(4-(5-fluoropyridin-3-yl)phenyl)butanamide] | > 7.00
18 | CCCOc1cncc(-c2ccc(NC(=O)C(C)(C)c3csc(NS(=O)(=O)C4CC4)n3)cc2)c1 [T157, 2-(2-(cyclopropanesulfonamido)thiazol-4-yl)-2-methyl-N-(4-(5-propoxypyridin-3-yl)phenyl)propanamide] | > 7.00
19 | CC(C)Oc1cncc(-c2ccc(NC(=O)C(C)(C)c3csc(NS(=O)(=O)C4CC4)n3)cc2)c1 [T158, 2-(2-(cyclopropanesulfonamido)thiazol-4-yl)-N-(4-(5-isopropoxypyridin-3-yl)phenyl)-2-methylpropanamide] | > 7.00
20 | CC(C)Oc1cncc(-c2ccc(NC(=O)C(C)(C)c3csc(NS(=O)(=O)C4CC4)n3)c(F)c2)c1 [T159, 2-(2-(cyclopropanesulfonamido)thiazol-4-yl)-N-(2-fluoro-4-(5-isopropoxypyridin-3-yl)phenyl)-2-methylpropanamide] | > 7.00
21 | CCC(CC)(C(=O)Nc1ccc(-c2cncc(C#N)n2)cc1)c1csc(NS(=O)(=O)C2CC2)n1 [T161, N-(4-(6-cyanopyrazin-2-yl)phenyl)-2-(2-(cyclopropanesulfonamido)thiazol-4-yl)-2-ethylbutanamide] | 6.00 to 7.00 and 5.00 to 6.00
22 | CC(C)(C(=O)Nc1ccc(-c2cccnc2)cc1)c1csc(NS(C)(=O)=O)n1 [T163, 2-methyl-2-(2-(methylsulfonamido)thiazol-4-yl)-N-(4-(pyridin-3-yl)phenyl)propanamide] | 6.00 to 7.00
23 | CN(C(=O)C(C)(C)c1csc(NS(=O)(=O)C2CC2)n1)c1ccc(-c2cccnc2)cc1 [T164, 2-(2-(cyclopropanesulfonamido)thiazol-4-yl)-N,2-dimethyl-N-(4-(pyridin-3-yl)phenyl)propanamide] | 5.00 to 6.00
24 | O=C(Cc1csc(NS(=O)(=O)C2CC2)n1)Nc1ccc(-c2cccnc2)c(F)c1F [T188, 2-(2-(cyclopropanesulfonamido)thiazol-4-yl)-N-(2,3-difluoro-4-(pyridin-3-yl)phenyl)acetamide] | 6.00 to 7.00
25 | COc1cc(-c2cccnc2)ccc1NC(=O)Cc1csc(NS(=O)(=O)C2CC2)n1 [T215, 2-(2-(cyclopropanesulfonamido)thiazol-4-yl)-N-(2-methoxy-4-(pyridin-3-yl)phenyl)acetamide] | > 7.00
26 | O=C(Cc1csc(NS(=O)(=O)C2CC2)n1)Nc1ccc(-c2cccnc2)cc1F [T216, 2-(2-(cyclopropanesulfonamido)thiazol-4-yl)-N-(2-fluoro-4-(pyridin-3-yl)phenyl)acetamide] | 6.00 to 7.00
27 | COc1cncc(-c2ccc(NC(=O)C(C)(C)c3csc(NS(=O)(=O)C4CC4)n3)nc2)c1 [T224, 2-(2-(cyclopropanesulfonamido)thiazol-4-yl)-N-(5′-methoxy-[3,3′-bipyridin]-6-yl)-2-methylpropanamide] | > 7.00
28 | CC(C)(C(=O)Nc1ccc(-c2cncc(Cl)c2)cn1)c1csc(NS(=O)(=O)C2CC2)n1 [T225, N-(5′-chloro-[3,3′-bipyridin]-6-yl)-2-(2-(cyclopropanesulfonamido)thiazol-4-yl)-2-methylpropanamide] | > 7.00
29 | CC(C)(C(=O)Nc1ccc(-c2cncc(C#N)c2)cn1)c1csc(NS(=O)(=O)C2CC2)n1 [T226, N-(5′-cyano-[3,3′-bipyridin]-6-yl)-2-(2-(cyclopropanesulfonamido)thiazol-4-yl)-2-methylpropanamide] | > 7.00
30 | CC(C)(C(=O)Nc1ncc(-c2cccnc2)cc1F)c1csc(NS(=O)(=O)C2CC2)n1 [T227, 2-(2-(cyclopropanesulfonamido)thiazol-4-yl)-N-(5-fluoro-[3,3′-bipyridin]-6-yl)-2-methylpropanamide] | 6.00 to 7.00
31 | CC(C)(C(=O)Nc1ncc(-c2cncc(C#N)c2)cc1F)c1csc(NS(=O)(=O)C2CC2)n1 [T228, N-(5′-cyano-5-fluoro-[3,3′-bipyridin]-6-yl)-2-(2-(cyclopropanesulfonamido)thiazol-4-yl)-2-methylpropanamide] | > 7.00
32 | CC(C)(C(=O)Nc1ncc(-c2cncc(Cl)c2)cc1F)c1csc(NS(=O)(=O)C2CC2)n1 [T229, N-(5′-chloro-5-fluoro-[3,3′-bipyridin]-6-yl)-2-(2-(cyclopropanesulfonamido)thiazol-4-yl)-2-methylpropanamide] | > 7.00
